According to patent US11925655B2, “FAP-activated therapeutic agents, and uses related thereto” (Bach Biosciences, LLC, priority 2014, dated 2024):
Read-outs that look alike come from different tables or passages of the source.

What was measured:
HEK-Mock cells = test: CellTiter-Blue cell viability assay with HEK-Mock cells; type: cell-based; conditions: Homo sapiens, 72 h
SK-OV-3 = test: CellTiter-Blue cell viability assay: SK-OV-3; type: cell-based; conditions: Homo sapiens
FAP [1] = molecular target: T1, FAP (Homo sapiens, UniProt Q12884); test: Selectivity of FAP over PREP (5057DOX activation by recombinant enzyme); type: biochemical; conditions: 240 nM 5057DOX, 12, 24 or 48 nM recombinant enzyme, 37° C., FIG. 12
T1 sequence (Q12884 1-760): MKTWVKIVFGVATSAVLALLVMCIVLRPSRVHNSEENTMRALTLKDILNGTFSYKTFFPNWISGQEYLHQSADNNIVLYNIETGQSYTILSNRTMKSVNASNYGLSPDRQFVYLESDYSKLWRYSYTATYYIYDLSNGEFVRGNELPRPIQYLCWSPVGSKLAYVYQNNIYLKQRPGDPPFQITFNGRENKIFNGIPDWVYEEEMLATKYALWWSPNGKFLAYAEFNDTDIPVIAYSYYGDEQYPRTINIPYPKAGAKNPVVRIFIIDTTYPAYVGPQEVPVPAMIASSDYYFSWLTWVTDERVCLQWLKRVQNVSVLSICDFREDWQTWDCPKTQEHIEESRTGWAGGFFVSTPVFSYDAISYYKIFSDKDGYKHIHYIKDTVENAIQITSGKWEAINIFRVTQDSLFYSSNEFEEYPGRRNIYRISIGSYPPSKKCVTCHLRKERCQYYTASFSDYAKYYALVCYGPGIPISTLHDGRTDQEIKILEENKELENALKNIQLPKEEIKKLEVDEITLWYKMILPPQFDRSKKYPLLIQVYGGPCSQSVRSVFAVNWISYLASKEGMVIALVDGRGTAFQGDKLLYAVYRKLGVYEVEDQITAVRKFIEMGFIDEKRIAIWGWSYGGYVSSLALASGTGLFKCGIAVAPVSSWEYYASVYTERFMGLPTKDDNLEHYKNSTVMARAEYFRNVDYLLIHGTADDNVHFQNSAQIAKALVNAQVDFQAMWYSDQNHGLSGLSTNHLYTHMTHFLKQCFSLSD
Protocol: Recombinant enzyme (FAP or PREP) was combined, at reaction concentration of 12 nM, 24 nM, or 48 nM, with 240 nM 5057DOX in FAP buffer (50 mM Tris-HCl, pH 7.4, 140 mM NaCl) and incubated at 37° C. Reactions were stopped at 0, 10, 20, or 30 minutes by addition of equal volume of 10 μM Val-boroPro (FAP inhibitor). Doxorubicin was measured by liquid chromatography/mass spectroscopy (LCMS).

OVCAR-3 = test: CellTiter-Blue cell viability assay: OVCAR-3; type: cell-based; conditions: Homo sapiens
FAP [2] = molecular target: T1, FAP; test: FAP digest of 5057DOX (kinetics); type: biochemical
MCF-7 = test: CellTiter-Blue cell viability assay: MCF-7; type: cell-based; conditions: Homo sapiens, MCF7, 5057DOX assay 5, 72 hour incubation
HEK-mFAP cells = test: CellTiter-Blue cell viability assay with HEK-mFAP cells; type: cell-based, human; conditions: Homo sapiens, 72 h
HPAF-II = test: Cytotoxicity against tumor lines: HPAF-II; type: cell-based; conditions: Homo sapiens, compound alone
Protocol: (§1) Cells from various tumor-derived cell lines were incubated with doxorubicin or 3099DOX, the latter in the presence or absence of FAP, and the EC50 for each was determined.

HEK-mFAP = test: Cytotoxicity against tumor lines: HEK-mFAP; type: cell-based; conditions: Homo sapiens, compound alone
Protocol: as §1

HT-29 = test: Cytotoxicity against tumor lines: HT-29; type: cell-based; conditions: Homo sapiens, compound alone
Protocol: as §1

HEK-Mock = test: Cytotoxicity against tumor lines: HEK-Mock; type: cell-based; conditions: Homo sapiens, compound alone
Protocol: as §1

BxPC-3 = test: Cytotoxicity against tumor lines: BxPC-3; type: cell-based; conditions: Homo sapiens, compound alone
Protocol: as §1

[3] = 5057DOX assay 2, 72 hour incubation, read-out: EC50 (prodrug + 25 nM PREP)
[4] = 5057DOX assay 2, 72 hour incubation, read-out: EC50 (prodrug + 100 uM 2054-9)
[5] = 5057DOX assay 2, 72 hour incubation, read-out: EC50 (prodrug alone)
[6] = 5057DOX assay 3, 72 hour incubation, read-out: EC50 (prodrug + 100 uM 2054-9)
[7] = 5057DOX assay 3, 72 hour incubation, read-out: EC50 (prodrug + 100 uM 3099-15)
[8] = 5057DOX assay 3, 72 hour incubation, read-out: EC50 (prodrug alone)
[9] = 5057DOX assay 4, 72 hour incubation, read-out: EC50 (prodrug + 100 uM 5057)
[10] = 5057DOX assay 4, 72 hour incubation, read-out: EC50 (prodrug alone)
[11] = 5057DOX assay 5, 72 hour incubation, read-out: EC50 (prodrug + 25 nM FAP)
[12] = 5057DOX assay 5, 72 hour incubation, read-out: EC50 (prodrug + 100 uM 5057)
[13] = 5057DOX assay 5, 72 hour incubation, read-out: EC50 (prodrug alone)
[14] = 5057DOX assay 2, 72 hour incubation, read-out: EC50 (doxorubicin alone)
[15] = 5057DOX assay 3, 72 hour incubation, read-out: EC50 (doxorubicin alone)
[16] = 5057DOX assay 4, 72 hour incubation, read-out: EC50 (doxorubicin alone)
[17] = 5061DOX assay 1, 72 hour incubation, read-out: EC50 (doxorubicin alone)
[18] = 5061DOX assay 2, 72 hour incubation, read-out: EC50 (doxorubicin alone)

## COc1cccc2c1C(=O)c1c(O)c3c(c(O)c1C2=O)C[C@@](O)(C(=O)CO)C[C@@H]3O[C@H]1C[C@H](NC(=O)[C@@H]2CC(F)(F)CN2C(=O)CNC(=O)c2ccnc3ccccc23)[C@H](O)[C@H](C)O1 [Compound 5057DOX]
HEK-Mock cells; 5057DOX assay 1, 72 hour incubation, read-out: EC50 (prodrug + 25 nM FAP)
  EC50: 36 nM
HEK-Mock cells; 5057DOX assay 1, 72 hour incubation, read-out: EC50 (prodrug + 25 nM PREP)
  EC50: 250 nM
HEK-Mock cells; 5057DOX assay 1, 72 hour incubation, read-out: EC50 (prodrug alone)
  EC50: 480 nM
HEK-Mock cells; 5057DOX assay 2, 72 hour incubation, read-out: EC50 (prodrug + 25 nM FAP)
  EC50: 26 nM
HEK-Mock cells; [3]
  EC50: 220 nM
HEK-Mock cells; [4]
  EC50: 9800 nM
HEK-Mock cells; [5]
  EC50: 460 nM
HEK-Mock cells; [6]
  EC50: > 10000 nM
HEK-Mock cells; [7]
  EC50: > 100000 nM
HEK-Mock cells; [8]
  EC50: 2300 nM
HEK-Mock cells; [9]
  EC50: > 100000 nM
HEK-Mock cells; [10]
  EC50: 1100 nM
SK-OV-3; [11]
  EC50: 140 nM
SK-OV-3; [12]
  EC50: 56000 nM
SK-OV-3; [13]
  EC50: 830 nM
FAP [1]
  activation by FAP as compared to PREP: selectively activated by FAP as compared to PREP
OVCAR-3; [11]
  EC50: 1000 nM
OVCAR-3; [12]
  EC50: > 100000 nM
OVCAR-3; [13]
  EC50: > 100000 nM
FAP [2]; 5057DOX assay 6, [FAP] 4.00 × 10^−9M
  Kcat(Vmax/[E]): Kcat(Vmax/[E]) 1.30 sec^−1
FAP [2]; 5057DOX assay 7, [FAP] 1 nM, Dox standards, Daunorubicin internal standard
  Vmax: Vmax 9.80 × 10^−10M/sec
MCF-7; read-out: EC50 (prodrug + 25 nM FAP)
  EC50: 23000 nM
MCF-7; read-out: EC50 (prodrug + 100 uM 5057)
  EC50: > 100000 nM
MCF-7; read-out: EC50 (prodrug alone)
  EC50: > 100000 nM
HEK-mFAP cells; [3]
  EC50: 110 nM
HEK-mFAP cells; [4]
  EC50: 740 nM
HEK-mFAP cells; 5057DOX assay 2, 72 hour incubation, read-out: EC50 (prodrug + 100 uM 3099-15)
  EC50: > 10000 nM
HEK-mFAP cells; [5]
  EC50: 140 nM
HEK-mFAP cells; [6]
  EC50: 5300 nM
HEK-mFAP cells; [7]
  EC50: > 100000 nM
HEK-mFAP cells; [8]
  EC50: 600 nM
HEK-mFAP cells; [9]
  EC50: > 100000 nM
HEK-mFAP cells; [10]
  EC50: 770 nM
HEK-mFAP cells; 5057DOX assay 8, 72 hour incubation, read-out: EC50 (prodrug + 100 uM 5057)
  EC50: > 100000 nM
HEK-mFAP cells; 5057DOX assay 8, 72 hour incubation, read-out: EC50 (prodrug alone)
  EC50: 1100 nM

## COc1cccc2c1C(=O)c1c(O)c3c(c(O)c1C2=O)C[C@@](O)(C(=O)CO)C[C@@H]3O[C@H]1C[C@H](N)[C@H](O)[C@H](C)O1 [doxorubicin, reference compound]
HPAF-II
  EC50: 2000 nM
HEK-mFAP
  EC50: 200 nM
HT-29
  EC50: 400 nM
HEK-Mock cells; 5057DOX assay 1, 72 hour incubation, read-out: EC50 (doxorubicin alone)
  EC50: 36 nM
HEK-Mock cells; [14]
  EC50: 34 nM
HEK-Mock cells; [15]
  EC50: 95 nM
HEK-Mock cells; [16]
  EC50: 92 nM
HEK-Mock cells; [17]
  EC50: 92 nM
SK-OV-3; [18]
  EC50: 440 nM
OVCAR-3; [18]
  EC50: 1700 nM
HEK-Mock
  EC50: 50 nM
BxPC-3
  EC50: 3100 nM
MCF-7; read-out: EC50 (doxorubicin alone)
  EC50: 54000 nM
HEK-mFAP cells; [14]
  EC50: 59 nM
HEK-mFAP cells; [15]
  EC50: 240 nM
HEK-mFAP cells; [16]
  EC50: 420 nM
HEK-mFAP cells; 5057DOX assay 8, 72 hour incubation, read-out: EC50 (doxorubicin)
  EC50: 400 nM
HEK-mFAP cells; [17]
  EC50: 420 nM
HEK-mFAP cells; 5107DOX assay, 72 hour incubation, read-out: EC50 (doxorubicin)
  EC50: 390 nM
